A value given as a limit tells only on which side of the number the result lay.

The values below come from patent US20170176446A1, “Methods for Determining the Oncogenic Condition of Cell, Uses Thereof, and Methods for Treating Cancer” (INSERM (INSTITUT NATIONAL DE LA SANTE ET DE LA RECHERCHE …, priority 2009, published 2017).

The subject of assay [1] is MCF7 cells. The assay is described as follows: OCDO production by MCF7 cells incubated with [14C]CT for 24 hours (example 11). The class given is cell-based, human. The following applies: 10 μM, control = 100. The protocol:
(§1) Generally, in order to establish the percentages of OCDO inhibition from the thin-layer chromatography (TLC) plates obtained as in assay 2, the radioactive metabolites are identified and quantified on the basis of said plates using a europium-sensitive plate of GP Phosphor screen type (GE Healthcare) and a Storm 840 phosphorimagor (GE Healthcare). The proportion of radiolabeled oxysterols is determined on the autoradiogram obtained by densitometry using the Image Quant 5.2 software. The percentage is calculated on the basis of the ratio between the amount of oxysterols quantified divided by the sum of the amounts of oxysterols (CEE+CE+CT+OCDO). Since the CEE (CE ester) originates exclusively from the CE, the percentage CE is calculated on the basis of the ratio (CE+CEE)/(CE+CEE+CT+OCDO).
The following experiments were carried out: MCF7 tumor cells were placed in the presence of 0.5 μM of [^14C]CT and were then incubated for 24 hours in the presence of one of the following products: • 1. vehicle solvent (0.1% ethanol in a PBS buffer) serving as a control (lane 1) • 2. 10 μM of progesterone • 3. 10 μM of U18666A • 4. 100 nM of TCDD • 5. 10 μM of benzo(A)pyrene • 6. 10 μM of resveratrol • 7. 10 μM of PDM2 (Ant. 1).
Thin-layer chromatographies were carried out and FIG. 24 represents the plate obtained. The OCDO production in the treated cells was quantified from the spots of the various lanes, by applying the protocol given in detail in example 7. The results of this quantification are represented by the histogram of FIG. 24.
The amounts of OCDO produced by MCF7 cells, when they are incubated according to the same protocol as defined above with other Ahr receptor antagonists, was also measured, the control test being brought to 100 and the OCDO production being expressed as % of the control (same control as above).

Assay [2] has as its target T1, ChEH (Rattus norvegicus, UniProt Q9JJ46).
T1 construct: 150 μg of rat liver microsome proteins are incubated; from tissue; host or cells: rat liver microsomes
T1 sequence (Q9JJ46 1-230): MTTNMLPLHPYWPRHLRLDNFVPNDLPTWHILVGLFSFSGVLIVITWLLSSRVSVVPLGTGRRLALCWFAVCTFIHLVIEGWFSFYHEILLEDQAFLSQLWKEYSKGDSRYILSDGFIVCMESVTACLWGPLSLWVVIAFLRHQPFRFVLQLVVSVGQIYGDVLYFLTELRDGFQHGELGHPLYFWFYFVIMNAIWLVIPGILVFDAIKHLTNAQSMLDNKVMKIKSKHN
The assay is described as follows: Determination of the Ki for ChEH on rat liver microsome proteins (Dixon method). Type of assay: biochemical. As to conditions: 150 μg rat liver microsome proteins, [14C]CEα. For orientation: Liver microsomes are vesicles of endoplasmic reticulum, rich in cytochrome P450 enzymes.

The test system of assay [3] is MCF7 cells. Kind of assay: OCDO production by MCF7 cells incubated with [14C]CE, thin-layer chromatography. The class given is cell-based, human. As to conditions: for % CE / % CT / % OCDO: [14C]CEα, concentration given with each compound, share of labeled oxysterols.
Source text: For assays 1 to 5 and in some of the examples given later in this patent application, MCF7 tumor cells, which originate from the American Tissue Culture Collection (ATCC), were used. […] It is desired to study the activity of ChEH in […] cells by silica thin-layer chromatography. The compounds that it is desired to visualize are the CE and CT compounds defined above. In order to visualize the spots corresponding to CE and CT on a chromatography plate, ^14C-labeled CE and CT compounds were synthesized.
In order to be used in assays 1 to 5 which follow, the cells are seeded into 6-well plates at a density of 80 000 cells in a volume of 2 ml. […] After the incubation time desired for the assay, the medium is collected, the cells are washed with cold PBS (phosphate buffer) (2 ml per well) which is pooled with the medium. The cells are then scraped into cold PBS (1 ml for 3 wells); the wells are again rinsed with cold PBS (1 ml for 3 wells). The cell suspension obtained is centrifuged at 1000 rpm for 5 min at 4° C. […] Throughout the rest of this description, the vehicle solvent used is the same as that defined above.
The aqueous and organic radioactivities are counted. The organic phases are brought to dryness under argon. The residue is resuspended in 60 μl of ethanol and then deposited, in a proportion of 20 μl per lane, on to the glass-backed silica plates (Whatman LK-6-DF, 20×20), which are used in the various assays (these plates having been preheated at 100° C. for 1 hour). The migration solvent used is ethyl acetate. The chromatography plates are placed in contact with a “phosphor-screen” plate in a cassette overnight. […] In order to evaluate the more or less dense nature of the spots obtained on the plates, the radioactivity is quantified by densitometry with the “Imagequant”™ computer program.
as §1
Assay 2 given above was therefore completed by measuring the amounts of the products present when the MCF7 tumor cells are incubated as indicated in detail in assay 2.
In order to establish that the link that exists between, on the one hand, the ability of various compounds to inhibit OCDO in an MCF7 tumor cell and, on the other hand, their quality as a ChEH inhibitor, is well-founded, the inhibition coefficients Ki for ChEH relating to a certain number of products was calculated and the production of OCDO by MCF7 cells after incubation of the cells with the same products was measured according to the protocol defined in assay 2 of the present patent application.

Where [4] appears, read: concentration in μM in parentheses after each molecule, control = 100.

Regarding `Clc1ccc(/C=C/c2cc(Cl)cc(Cl)c2)cc1` [Ant 1, (E)-1-(4′-chlorophenyl)-2-(3,5-dichlorophenyl)-ethene], the “OCDO production by MCF-7 (% control)” value in assay [1] is recorded as below 1 % control.

In general, Ki refers to the dissociation constant of the complex between target and ligand, obtained from inhibition or displacement. Low readings indicate tighter binding, high ones weaker binding. On to `CCN(CC)CCOc1ccc(C(O)(Cc2ccc(Cl)cc2)c2ccc(C)cc2)cc1` (centres unmarked) [Triparanol], for which, in assay [2], the Ki was 39.5 ± 3 nM. Moreover, the “OCDO production by MCF-7 (% control)” value in assay [3] (setting [4]) is listed as below 1 % control.

Compound `C[C@@H]1CN(CCCn2c3ccccc3c3ccccc32)C[C@H](C)N1` [Rimcazole, 9-[3-[(3S,5R)-3,5-dimethylpiperazin-1-yl]propyl]carbazole] registered a Ki in assay [2] of 2325 ± 8 nM. Moreover, in assay [3] (setting [4]), the “OCDO production by MCF-7 (% control)” value was 12 % control.

In assay [2], `CCN(CC)CCOc1ccc(Cc2ccccc2)cc1` [Tesmilifene, 2-(4-benzylphenoxy)-N,N-diethylethanamine] registered a Ki of 62.4 ± 3 nM. In assay [3] (MCF7 cells, three days), the “% CE” value is 80.7%, the “% CT” value is on record as 10.5% and the “% OCDO” value is listed as 8.8%. Besides, the “OCDO production by MCF-7 (% control)” value in assay [3] (setting [4]) is below 1 % control.

For `O=C(CCCN1CCC(O)(c2ccc(Cl)cc2)CC1)c1ccc(F)cc1` [Haloperidol, 4-(4-(4-chlorophenyl)-4-hydroxypiperidin-1-yl)-1-(4-fluorophenyl)butan-1-one], in assay [3] (setting [4]), the “OCDO production by MCF-7 (% control)” value came out at 42 % control.

Turning to `Fc1ccc(/C=C/c2cc(F)cc(F)c2)cc1` [Ant 3, (E)-1-(4′-fluorophenyl)-2-(3,5-fluorophenyl)-ethene], the “OCDO production by MCF-7 (% control)” value in assay [1] is recorded as below 1 % control.

`COc1ccc(/C(=C(\c2ccccc2)[N+](=O)[O-])c2ccc(OCCN3CCCC3)cc2)cc1` [Nitromiphene, 1-[2-[4-[(Z)-1-(4-methoxyphenyl)-2-nitro-2-phenylethenyl]phenoxy]ethyl]pyrrolidine]: the Ki in assay [2] was 17.7 ± 6 nM. In addition, the “OCDO production by MCF-7 (% control)” value in assay [3] (setting [4]) is given as below 1 % control.

As for `FC(F)(F)c1ccc(/C=C/c2cc(C(F)(F)F)cc(C(F)(F)F)c2)cc1` [Ant 4, (E)-1-(4′-trifluoromethylphenyl)-2-(3,5-trifluoromethylphenyl)ethene], the “OCDO production by MCF-7 (% control)” value in assay [1] was below 1 % control.

`CC(=O)N1CCN(c2ccc(OCC3COC(Cn4ccnc4)(c4ccc(Cl)cc4Cl)O3)cc2)CC1` (centres unmarked) [ketoconazole]: the “production of the epoxysterol CE and of its derivatives CT and OCDO” value in assay [3] (10 μM ketoconazole, three days, MCF7 cells) was “inhibition of the production of the epoxysterol CE and of its derivatives”.

For `CC(C)CCC[C@@H](C)[C@H]1CC[C@H]2[C@@H]3C[C@@H]4O[C@@]45C[C@@H](O)CC[C@]5(C)[C@H]3CC[C@]12C` [CEα, 5,6-α-epoxycholestan-3β-ol], in assay [3] (MCF7 cells, three days), the “% CE” value is 31.5%, the “% CT” value stood at 41.5% and the “% OCDO” value was determined as 27%.

Consider `COc1cc(/C=C/c2ccc(F)cc2)cc(OC)c1` [Ant 5, (E)-1-(4′-fluorophenyl)-2-(3,5-dimethoxy-phenyl)ethene], for which the “OCDO production by MCF-7 (% control)” value in assay [1] is given as below 1 % control.

Consider Ibogaine, for which the “OCDO production by MCF-7 (% control)” value in assay [3] was found to be 25 % control.

In assay [2], `CCCC(C(=O)OCCN(CC)CC)(c1ccccc1)c1ccccc1` [SKF-525A, 2-diethylaminoethyl-2,2-diphenylpentanoate] gave a Ki of 1904 ± 11 nM. In addition, the “OCDO production by MCF-7 (% control)” value in assay [3] (setting [4]) is reported as below 1 % control.

Turning to `CC(C)(c1ccccc1)c1ccc(OCCN2CCCC2)cc1` [PCPE, 1-(2-(4-(2-phenylpropan-2-yl)phenoxy)ethyl)-pyrrolidine], in assay [2], affinity was put at a Ki of 34.7 ± 8 nM. In addition, the “OCDO production by MCF-7 (% control)” value in assay [3] (setting [4]) was below 1 % control.

Consider `CC[C@H](C)C(=O)O[C@H]1C[C@@H](C)C=C2C=C[C@H](C)[C@H](CC[C@@H]3C[C@@H](O)CC(=O)O3)[C@H]21` [lovastatin], for which, in assay [3] (10 μM, control brought to the value 100), the “OCDO production by the MCF7 cells” value is listed as “less than 1”.

`COc1ccc(/C=C/c2cc(F)cc(F)c2)cc1` [Ant 2, (E)-1-(4′-methoxyphenyl)-2-(3,5-fluorophenyl)-ethene]: the “OCDO production by MCF-7 (% control)” value in assay [1] is reported as below 1 % control.

Take `CC/C(=C(\c1ccc(O)cc1)c1ccc(OCCN(C)C)cc1)c1ccccc1` [4OH-Tamoxifen, 4-[(Z)-1-[4-(2-dimethylaminoethyloxy)-phenyl]-2-phenylbut-1-enyl]phenol]: in assay [2], the affinity corresponds to a Ki of 145 ± 4 nM. In assay [3] (setting [4]), the “OCDO production by MCF-7 (% control)” value is recorded as below 1 % control.

Take `CCN(CC)CCO[C@H]1CC[C@@]2(C)C(=CC[C@@H]3[C@@H]2CC[C@]2(C)C(=O)CC[C@@H]32)C1` [U-18666A, 3-beta-(2-(diethylamino)ethoxy)androst-5-en-17-one]: in assay [2], the affinity, expressed as Ki, was 90.3 ± 5 nM. In addition, in assay [3] (setting [4]), the “OCDO production by MCF-7 (% control)” value is on record as below 1 % control.

`CCN(CC)CCOc1ccc(C2C[C@]3(C)C(O)CC[C@H]3[C@@H]3CCc4cc(O)ccc4[C@@H]23)cc1` (some centres unmarked) [RU 39,411, 11-[4-N,N-[diethylaminoethoxy]phenyl]estra-1,3,5(10)triene-3,17-diol]: the Ki in assay [2] was 155 ± 8 nM. Also, the “OCDO production by MCF-7 (% control)” value in assay [3] (setting [4]) is below 1 % control.

In assay [2], “(E)-N,3,6,6-tetramethyl-N-(naphthalen-1-ylmethyl)hept-2-en-4-yn-1-amine [Terbinafine]” returned a Ki of 9105 ± 33 nM. The “OCDO production by MCF-7 (% control)” value in assay [3] (setting [4]) was below 1 % control.

Regarding `Oc1ccc(C=Cc2cc(O)cc(O)c2)cc1` [Resveratrol], the “OCDO production by MCF-7 (% control)” value in assay [1] is reported as below 1 % control.

Turning to `CN1CCN(CCCN2c3ccccc3Sc3ccc(C(F)(F)F)cc32)CC1` [Trifluoroperazine, 10-[3-(4-methylpiperazin-1-yl)propyl]-2-(trifluoromethyl)phenothiazine], in assay [2], the Ki worked out at 135 ± 7 nM. For the same compound, the “OCDO production by MCF-7 (% control)” value in assay [3] (setting [4]) was below 1 % control.

With `CCCCc1oc2ccccc2c1C(=O)c1cc(I)c(OCCN(CC)CC)c(I)c1` [Amiodarone, (2-butyl-1-benzofuran-3-yl)-[4-(2-diethylaminoethyloxy)-3,5-diiodophenyl]methanone], the “OCDO production by MCF-7 (% control)” value in assay [3] (setting [4]) is 8 % control.

In turn, `O=C(c1ccc(OCCN2CCCCC2)cc1)c1c(-c2ccc(O)cc2)sc2cc(O)ccc12` [Raloxifene, [6-hydroxy-2-(4-hydroxyphenyl)-1-benzothiophen-3-yl]-[4-(2-piperidin-1-ylethoxy)phenyl]methanone] registered an inhibition constant (Ki) in assay [2] of 35.6 ± 4 nM. Also, in assay [3] (MCF7 cells, three days), the “% CE” value turned out to be 96.5%, the “% CT” value came to 3% and the “% OCDO” value is listed as 0.5%. In addition, the “OCDO production by MCF-7 (% control)” value in assay [3] (setting [4]) is given as below 1 % control.

Consider `CCN(CC)CCOc1ccc(/C(=C(\Cl)c2ccccc2)c2ccccc2)cc1` [Clomiphene, 2-[4-[(Z)-2-chloro-1,2-di(phenyl)ethenyl]-phenoxy]-N,N-diethylethanamine], for which the “OCDO production by MCF-7 (% control)” value in assay [3] (setting [4]) is on record as below 1 % control.

On to `Clc1ccccc1CNC[C@H]1CC[C@H](CNCc2ccccc2Cl)CC1` [AY-9944, trans-1,4-bis(2-chlorobenzaminomethyl)-cyclohexane], for which the inhibition constant Ki in assay [2] was 649 ± 6 nM. The “OCDO production by MCF-7 (% control)” value in assay [3] (setting [4]) is listed as below 1 % control.
